Results taken from patent publication US20060263881A1, “Methods of expanding and selecting disease associated T-Cells” (priority 1998, published 2006).
Values joined by “and” are separate entries in the source; they are usually repeats but may differ in a detail not shown here. Equal values may be shown once.

Key:
[1] = tested on: in vivo activated gut T-lymphocytes (primary cultures C11.3, C12.1, C8.1, C8.3) from patients with Crohn's disease; type: cell-based, human; details: 24 h
[2] = tested on: long term cultured gut T-cell cultures C1x, C2x, C4.2; type: cell-based, human
[3] = tested on: gut T-cell cultures from patients with Crohn's disease; type: cell-based, human
[4] = tested on: human T-cell lines; assay: Cytolysis after addition of Infliximab and incubation with fresh human serum (complement); type: cell-based; details: versus murine SP2/O myeloma cell results
[5] = tested on: gut T-cell cultures from patients with Crohn's disease
[6] = tested on: transmembrane TNFα on SP2/O myeloma cells; details: murine SP2/O myeloma cells with cleavage-resistant transmembrane TNFα; cited from earlier work

## Infliximab: chimeric TNFα antibody with high avidity for transmembrane TNFα (obtained from Centocor)
[1]
  Reduction of IFNγ production by Infliximab: 68% and 43% and 49% and 56%
  Reduction of TNFα production by Infliximab: 97%
[2]
  SEA induced cytokine production after addition of Infliximab (in words): reduced
[3]
  Proliferation rate (in words): did not change
[4]
  Complement activation / cytolysis by binding of Infliximab (in words): could not confirm
[5]
  Amount of propidium iodide and Annexin-FITC positive cells compared with SEA alone (in words): did not increase
  Induction of apoptosis (in words): did not induce any apoptosis
[6]
  Infliximab molecules bound per cell (Scatchard analyses): about 35000 molecules per cell
